The text below walks through data of publication PMC8880129, “Plant- and Bacteria-Derived Compounds with Anti-Philasterides dicentrarchi Activity” (Pathogens, 2022).

A short description of data set [1]: Toxicity to EPC cell line, MTT assay. It counts as cell-based, fish. Particulars: fish, compound at its GI50 (24 h), MTT, read-out: EPC Cell Viability (%) Mean ± SD. The protocol: (§1) We used the Epithelioma Papulosum Cyprini (EPC) cell line, acquired from the American Type Culture Collection (ATCC®, Manassas, VA, USA), as a control for toxicity. The cell line, kindly provided by Doctors Pereira-Dopazo and Bandin from the Aquaculture Institute of the University of Santiago de Coompostela, was cultured in MEM medium equilibrated with Hanks’ balanced salts (Gibco, Thermo Fischer Sci., Waltham, MA, USA) supplemented with 10% foetal bovine serum and 10 mL/L of 100X antibiotic–antimycotic solution. Cells were maintained subconfluent at 25 °C in a cell culture incubator and used when the confluence reached 75%.
(§2) Cell viability was then estimated by the MTT (3-(4,5-dimethylthiazol-2-yl)-2,5-diphenyl tetrazolium bromide) assay, as previously described, with minor modifications. Briefly, 100 μL of the MTT solution (1 mg/mL in phosphate-buffered saline; pH 7.2) was added to each well, and plates were incubated at 25 °C for 4 h. The yellow tetrazolium salt of MTT is reduced by mitochondrial dehydrogenases in metabolically active cells to form insoluble purple formazan crystals, which are then dissolved by the addition of DMSO (50 μL/well). Prior to the addition of MTT or DMSO, the plates were washed, and the supernatant was removed. The absorbance was measured at 540 nm in a microplate reader (Multiskan™, Thermo Fischer Sci., Waltham, MA, USA), and the relative cell viability was expressed as the mean percentage of viable cells relative to untreated cells.
(§3) In the viability assay, the possible effect of DMSO was evaluated for each compound by the inclusion of three replicate wells with MEM medium and the same DMSO concentration as in the medium. […] Control cells with only MEM were also included in the assay.
A general note: Tetrazolium assays rely on reduction of a dye to a coloured formazan, in cell work by metabolically active cells.

For data set [2], the system named is EPC cells. In words: Toxicity to EPC cell line, MTT assay. The class given is cell-based, fish. Particulars: 24 h incubation, compound at its GI50 (24 h). How it is done: as §1, §2, §3
Data set [3] has as its system goldfish. Also noted: method as in doi:10.1016/j.aquaculture.2021.736372. Particulars: cited from earlier work.
Data set [4] deals with Philasterides dicentrarchi. In words: Anticiliate activity, ciliates maintained in seawater (LC100, LC50). It counts as cell-based. Particulars: 3 h incubation. The protocol:
All experiments were carried out in triplicate.

In data set [5] the test system is Philasterides dicentrarchi. In words: microbe, parasite or virus in culture. How it is done: P. dicentrarchi (isolate I1), obtained from an outbreak of scuticociliatosis in cultured turbot in Galicia, was routinely cultured at 18 °C in complete sterile L15 medium (Leibovitz, PAA Laboratories GmbH, 1% salinity, pH 7.2) containing 90 mg/L each of adenosine, cytidine, and uridine, 150 mg/L of guanosine, 5 g/L of glucose, 400 mg/L of L-α-phosphatidylcholine, 200 mg/L of Tween 80, 10% of heat-inactivated foetal bovine serum (FBS), and 10 mL/L of 100X antibiotic–antimycotic solution (100 units/mL of penicillin G, 0.1 mg/mL of streptomycin sulphate and 0.25 mg/mL of amphotericin B), as previously described. Alternatively, ciliates were cultured in seawater with autoclaved marine bacteria (10^6 cells/mL) supplied as food at 21 °C. The ciliates were cultured under normoxic conditions in tissue culture flasks fitted with vented caps that enabled aeration of the culture medium.
We tested the toxicity to P. dicentrarchi of 26 compounds of natural origin (Table 1). The compounds were prepared in 10 mM stock solutions in dimethyl sulfoxide (DMSO) and maintained at −20 °C until use. In addition, the Pseudomonas H6 lipopeptide surfactant (PS) was prepared, lyophilised and stored at −20 °C [37]. A stock solution of PS was prepared in distilled water (1000 ppm) and diluted in culture medium or seawater at the final concentrations used in each assay and sterile filtered (through 0.2 µm filters) before being added to the parasites or EPC cells.
The anticiliate activity was assayed as previously described, with minor modifications. Ciliates were concentrated by centrifugation at 650× g for 5 min and resuspended in a medium at the concentration required for the assays. All experiments were carried out in triplicate. Wells containing ciliates in a culture medium or seawater without the test compounds were assayed as negative controls. To rule out any possible effects of the solvent (DMSO), triplicate wells with a culture medium or seawater containing the highest concentration of DMSO used (up to 1%) were also included. […] In these assays, the compounds were diluted in 1 mL of culture medium or seawater and added to the wells of 24-well sterile culture plates containing 2.5 × 10^4 ciliates per well, at final concentrations of […], 6.25, 12.5, 25, 50, and 100 µM in culture medium. The effects of the compounds on the motility and morphology of the ciliates were monitored periodically (at 30 min, 1, 2, 3, 24, and 48 h) under an inverted optical microscope. Ciliates were considered dead when they lysed and were not motile. The results obtained are expressed as percentage mortality for each experimental group. To estimate the total number of ciliates per well, the ciliates were inactivated by adding 0.25% glutaraldehyde and counted in a haemocytometer under an optical microscope. The lowest dose of the selected compounds resulting in 100% ciliate mortality (LC100) was assessed at 1, 2, and 3 h after incubation of parasites with sample dilutions (from 0 to 100 μg/mL, in 10 μg intervals). The concentration that inhibited 50% of ciliate growth (GI50), in comparison with the control group, was calculated with Excel software (Microsoft Office; Microsoft, Redmond, WA, USA) by plotting the dose-response data (log dose-per cent of growth inhibition) and applying linear regression (y = mx + b) for data fitting. The values were then calculated from the equation log GI50 = (50 − b)/m, where m is the slope y1 − y2/x1 − x2, and b is the intercept of the line.

In data set [6] the test system is Gyrodactylus kobayashii. Also noted: method as in doi:10.1016/j.aquaculture.2021.736372. The settings on record: exposure to 2.0 μg/mL; cited from earlier work.
Data set [7] concerns Saprolegnia delica. Also noted: method as in PMID 32154278. The settings on record: 0.1 mM; cited from earlier work.

Where two headings read alike, the source gives them in different places.

On to `CC1=CC(=O)c2c(O)cccc2C1=O` [Plumbagin], for which the viability – broadly, a per cent measure of how many cells are alive, often set against a control – at 3 h in data set [1] (3 h incubation) came out at 78.7 ± 1.4%. The viability at 24 h in data set [1] (24 h incubation) was 74.2 ± 3.94%. In data set [2], this compound displayed an EPC cells killed of 26%. The “concentration toxic to goldfish” value in data set [3] is recorded as “higher than 0.5 mg/L”. For the same compound, in data set [4], the “LC100 (lowest concentration resulting in 100% ciliate mortality)” value was found to be 30 µM. The “Ciliate Mortality 3 h (%)” value in data set [5] (100 μM, 3 h, culture medium, mean ± SD of three replicates) turned out to be 100%. For the same compound, the “parasites killed after 24 h” value in data set [5] (100 μM, 24 h, culture medium) is listed as “killed all the parasites”. In data set [5] (Philasterides dicentrarchi, 3 h, read-out: Ciliate Mortality 3 h (%), 100 μM, 3 h, culture medium, mean ± SD of three replicates), the mortality (usually the share of the test organisms that died) at 100 µM was above 90%. In addition, the GI50 in data set [5] (Philasterides dicentrarchi, 24 h, read-out: GI50 24 h (compound concentration that inhibited 50% of parasite growth)) is 12.9 ± 1.16 µM; in data set [5] (Philasterides dicentrarchi, 24 h, read-out: GI50 24 h expressed in μg/mL) it was 2.42 µg/mL; in data set [5] (Philasterides dicentrarchi, 48 h, read-out: GI50 48 h (compound concentration that inhibited 50% of parasite growth)) it was 9.65 ± 0.67 µM. Besides, the inhibition – broadly, the change of the read-out against control, counted positive when it falls – at 100 µM in data set [5] (Philasterides dicentrarchi, 24 h, read-out: Growth Inhibition 24 h (%), 100 μM, 24 h, culture medium, mean ± SD of three replicates) came to 100%. In data set [5] (microscopy observation), the “effect on the ciliate (lysis, movement)” value is recorded as “inhibited the ciliate movement, but it did not cause cell lysis for several hours”. In addition, the “time to complete death of Gyrodactylus kobayashii” value in data set [6] is on record as at most 45 min. Also, in data set [7], the “growth of Saprolegnia delica” value was “inhibiting”.
